Test [1] concerns dog plasma. The experiment in a line: Anti-coagulant activity after administration per os to dogs, ACT. It is filed as in vivo. The note with it: p.o. As to the method: (§1) […] The coagulation times (TT, ACT) are determined from dog plasma samples 10 minutes before and 30 min, 1 hour, 2 hours, 4 hours and 6 hours after administration of the products.
The subject of test [2] is human plasma. The test can be described thus: Anti-coagulant activity, thrombin time (TT) in human plasma. The note with it: 37° C. It is filed as biochemical. As to the method:
(§2) In order to evaluate the anti-coagulant activity of the compounds of the invention, the thrombin time (TT) and activated cephalin time (ACT) were determined from human plasma samples. An ST4 coagulometer (Diagnostica Stago, France) was used. Plasma, deficient in platelets and lyophilised (Stago), is taken up in distilled water. The TT is obtained using the reagent Prest Thrombin and the ACT using the reagent PTT Automate […]. […] Under those conditions, the TT is of the order of 18 seconds and the ACT is of the order of 12 seconds. The activity of an antagonist is evaluated by its capacity to prolong the TT and the ACT relative to the control. The effect of the inhibitors is expressed by the concentration in μM that doubles the coagulation time (Ctt2).

For test [3], the target named is T1, human thrombin (Homo sapiens, UniProt P00734).
T1 construct: purchased Sigma
The test can be described thus: Inhibition of human thrombin (fibrinogen substrate, fibrin formation). It is filed as biochemical. The note with it: human thrombin 0.7 nM, 10 min preincubation, 20° C., pH 7.4. As to the method: Inhibitors, enzymes and substrates are diluted in the same buffer ([…] phosphate buffer, pH 7.4, containing 0.12 M sodium chloride and 0.05% of bovine serum albumin) and then distributed on a polystyrene microtitre plate in a volume of 50 μl. The fibrin formed by the thrombin or by the paranitroanilide released by the action of the serine protease is measured using a spectrophotometer at 405 nm after from 15 to 30 minutes' reaction at 20° C. Table 2 below gives in nM the concentration of the compounds that inhibits 50% of the enzymatic activity (IC50) of the thrombin compared with the control without product.

The test system of test [4] is dog plasma. The experiment in a line: Anti-coagulant activity after administration per os to dogs, TT. It is filed as in vivo. The conditions noted are these: p.o. Here is the method:
as §1

Test [5] has as its system human plasma. The test can be described thus: Anti-coagulant activity, activated cephalin time (ACT) in human plasma. The conditions noted are these: 37° C. It is filed as biochemical. Here is the method: as §2
For test [6], the target named is t-PA (Homo sapiens, UniProt P00750). The test can be described thus: Inhibition of fibrinolysis serine proteases: t-PA. It is filed as biochemical. The note with it: fibrinolysis protease. Here is the method:
(§3) Inhibitors, enzymes and substrates are diluted in the same buffer ([…] phosphate buffer, pH 7.4, containing 0.12 M sodium chloride and 0.05% of bovine serum albumin) and then distributed on a polystyrene microtitre plate in a volume of 50 μl. The fibrin formed by the thrombin or by the paranitroanilide released by the action of the serine protease is measured using a spectrophotometer at 405 nm after from 15 to 30 minutes' reaction at 20° C. Table 3 below gives in nM the concentration of the compounds that inhibits 50% of the enzymatic activity (IC50) of the fibrinolysis proteases.

In test [7] the target is uPA (Homo sapiens, UniProt P00749). The experiment in a line: Inhibition of fibrinolysis serine proteases: uPA. The class given is biochemical. The conditions noted are these: fibrinolysis protease. Here is the method: as §3
The target in test [8] is T2, human plasmin (Homo sapiens, UniProt P00747).
T2 construct: purchased Stago
The experiment in a line: Inhibition of fibrinolysis serine proteases: plasmin. The class given is biochemical. The note with it: human plasmin 2 nM, substrate S 2403 0.50 mM, 20° C., pH 7.4. As to the method:
as §3

Molecules are shown by their SMILES. Where a name gives a salt, the structure may show the parent alone.

T2 sequence (P00747 581-810 limits assumed): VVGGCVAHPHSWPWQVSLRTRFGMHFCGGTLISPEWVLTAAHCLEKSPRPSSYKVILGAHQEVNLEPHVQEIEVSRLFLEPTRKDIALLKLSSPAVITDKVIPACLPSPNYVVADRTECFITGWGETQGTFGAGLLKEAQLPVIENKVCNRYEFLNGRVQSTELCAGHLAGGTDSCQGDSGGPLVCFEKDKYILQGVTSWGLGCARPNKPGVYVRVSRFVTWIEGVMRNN
Chain of t-PA (P00750 36-562): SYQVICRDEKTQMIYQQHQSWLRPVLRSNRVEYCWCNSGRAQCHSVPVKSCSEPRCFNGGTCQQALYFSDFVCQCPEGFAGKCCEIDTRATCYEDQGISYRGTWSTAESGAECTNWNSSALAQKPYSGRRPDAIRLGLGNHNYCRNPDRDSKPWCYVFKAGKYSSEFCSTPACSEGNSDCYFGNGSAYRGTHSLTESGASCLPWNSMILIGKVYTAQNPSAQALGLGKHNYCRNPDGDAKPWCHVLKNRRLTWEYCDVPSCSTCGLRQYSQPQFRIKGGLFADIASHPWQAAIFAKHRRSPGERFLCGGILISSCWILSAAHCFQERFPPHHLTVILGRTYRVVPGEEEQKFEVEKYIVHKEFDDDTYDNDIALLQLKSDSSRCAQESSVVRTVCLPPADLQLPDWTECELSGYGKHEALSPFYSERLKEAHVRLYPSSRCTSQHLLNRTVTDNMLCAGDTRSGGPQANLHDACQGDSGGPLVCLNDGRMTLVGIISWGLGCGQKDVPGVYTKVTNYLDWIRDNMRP

The IC50 is the concentration that inhibits the measured activity by half. The low end stands for greater potency, the high end for weaker potency. In the case of `Cc1nc(N)ccc1CNC(=O)[C@@H]1CCc2cnc(NCC(c3ccccc3)c3ccccn3)c(=O)n21` (single isomer, unassigned) [Example 20], in test [1] (3 mg/kg), the “Maximum ACT increase (number of times by which the initial time has been increased)” value (shortened to “Maximum ACT increase”) was determined as 1.4 times. Moreover, in test [2], the “TT Ctt2 (concentration that doubles the coagulation time)” value (“TT Ctt2” below) is 0.15 µM. Further, the IC50 in test [3] is 6 nM. Besides, the “Maximum TT increase (number of times by which the initial time has been increased)” value (“Maximum TT increase” for short) in test [4] (3 mg/kg) turned out to be 4.4 times. In test [5], the “ACT Ctt2 (concentration that doubles the coagulation time)” value (from here on “ACT Ctt2”) came to 2.17 µM.

On to `Cc1nc(N)ccc1CNC(=O)[C@@H]1CCc2cnc(NCCc3ccccc3)c(=O)n21` [Example 1, (6S)-N-[(6-Amino-2-methyl-3-pyridyl)methyl]-4-oxo-3-(2-phenethylamino)-4,6,7,8-tetrahydropyrrolo[1,2-a]pyrazine-6-carboxamide dihydrochloride], for which, in test [1] (3 mg/kg), the “Maximum ACT increase” value turned out to be 1.6 times. In addition, the “TT Ctt2” value in test [2] worked out at 3 µM. Moreover, the IC50 was more than 33000 nM in test [6], more than 33000 nM in test [7], 34 nM in test [3] and more than 33000 nM in test [8]. In addition, in test [4] (3 mg/kg), the “Maximum TT increase” value stood at 3.6 times. The “ACT Ctt2” value in test [5] came to 9.1 µM.

With `Cc1nc(N)ccc1CNC(=O)[C@@H]1CCc2cnc(NCC(c3ccccc3)c3ccccc3)c(=O)n21.Cl.Cl` [Example 6, (6S)-N-[(6-Amino-2-methyl-3-pyridyl)methyl]-3-[(2,2-diphenylethyl)amino]-4-oxo-4,6,7,8-tetrahydropyrrolo[1,2-a]pyrazine-6-carboxamide dihydrochloride], the “Maximum ACT increase” value in test [1] (10 mg/kg) was 1.7 times. The “TT Ctt2” value in test [2] was found to be 0.4 µM. The IC50 was more than 33000 nM in test [6], more than 33000 nM in test [7], 11 nM in test [3] and more than 33000 nM in test [8]. Also, the “Maximum TT increase” value in test [4] (10 mg/kg) was 6.2 times. For the same compound, the “ACT Ctt2” value in test [5] was found to be 2.5 µM.

Take `COc1ccc(CCNc2ncc3n(c2=O)[C@H](C(=O)NCc2ccc(N)nc2C)CC3)cc1OC.Cl.Cl.O` [Example 7, (6S)-N-[(6-Amino-2-methyl-3-pyridyl)methyl]-3-[(3,4-dimethoxyphenethyl)amino]-4-oxo-4,6,7,8-tetrahydropyrrolo[1,2-a]pyrazine-6-carboxamide dihydrochloride monohydrate]: the “Maximum ACT increase” value in test [1] (3 mg/kg) worked out at 1.4 times. In addition, the “TT Ctt2” value in test [2] is 3 µM. For the same compound, the half-maximal inhibitory concentration (IC50) in test [6] was more than 33000 nM; in test [7], more than 33000 nM; in test [3], 42 nM; in test [8] it was more than 33000 nM. Further, the “Maximum TT increase” value in test [4] (3 mg/kg) was determined as 2.5 times. The “ACT Ctt2” value in test [5] was 9.1 µM.

Turning to `Cc1nc(N)ccc1CNC(=O)[C@@H]1CCc2cnc(NCCc3ccccn3)c(=O)n21.Cl.Cl.Cl` [Example 15, (6S)-N-[(6-Amino-2-methyl-3-pyridyl)methyl]-4-oxo-3-[2-(2-pyridyl)ethylamino]-4,6,7,8-tetrahydropyrrolo[1,2-a]pyrazine-6-carboxamide trihydrochloride], the “Maximum ACT increase” value in test [1] (3 mg/kg) stood at 1.6 times. In addition, in test [2], the “TT Ctt2” value stood at 0.11 µM. Besides, the IC50 in test [6] is more than 33000 nM; in test [7], more than 33000 nM; in test [3], 7 nM; in test [8], more than 33000 nM. The “Maximum TT increase” value in test [4] (3 mg/kg) was determined as 7 times. Also, the “ACT Ctt2” value in test [5] is 1.3 µM.

As to `Cc1nc(N)ccc1CNC(=O)[C@@H]1CCc2cnc(NCCc3cccnc3)c(=O)n21.Cl.Cl.Cl` [Example 16, (6S)-N-[(6-Amino-2-methyl-3-pyridyl)methyl]-4-oxo-3-[2-(3-pyridyl)ethylamino]-4,6,7,8-tetrahydropyrrolo[1,2-a]pyrazine-6-carboxamide trihydrochloride], in test [1] (10 mg/kg), the “Maximum ACT increase” value is recorded as 2.4 times. Besides, the “TT Ctt2” value in test [2] came to 0.17 µM. This compound yielded an IC50 in test [3] of 17 nM. In test [4] (10 mg/kg), the “Maximum TT increase” value turned out to be 13.3 times. In addition, in test [5], the “ACT Ctt2” value came to 1.6 µM.

As for `Cc1nc(N)ccc1CNC(=O)[C@@H]1CCc2cnc(NCC(c3ccccn3)c3ccccn3)c(=O)n21.Cl.Cl.Cl.Cl` [Example 22, (6S)-N-[(6-Amino-2-methyl-3-pyridyl)methyl]-3-[2,2-di-(2-pyridyl)ethylamino]-4-oxo-4,6,7,8-tetrahydropyrrolo[1,2-a]pyrazine-6-carboxamide tetrahydrochloride], the “Maximum ACT increase” value in test [1] (10 mg/kg) is reported as 1.5 times. Besides, the “TT Ctt2” value in test [2] was 0.22 µM. In test [3], the IC50 was determined as 20 nM. Moreover, the “Maximum TT increase” value in test [4] (10 mg/kg) stood at 4.5 times. Moreover, the “ACT Ctt2” value in test [5] worked out at 3.07 µM.

Turning to `COc1ccc(C(CNc2ncc3n(c2=O)[C@H](C(=O)NCc2ccc(N)nc2C)CC3)c2ccc(OC)cc2)cc1.Cl.Cl` [Example 23, (6S)-N-[(6-Amino-2-methyl-3-pyridyl)methyl]-3-[2,2-bis-(4-methoxy-phenyl)ethylamino]-4-oxo-4,6,7,8-tetrahydropyrrolo[1,2-a]pyrazine-6-carboxamide dihydrochloride], the “TT Ctt2” value in test [2] was 0.24 µM. The compound also registered an IC50 in test [3] of 3.9 nM. For the same compound, the “ACT Ctt2” value in test [5] is 2.75 µM.

Regarding `Cc1nc(N)ccc1CNC(=O)[C@@H]1CCc2cnc(NCC3c4ccccc4CCc4ccccc43)c(=O)n21` [Example 40, (6S)-N-[(6-Amino-2-methyl-3-pyridyl)methyl]-3-[(10,11-dihydro-5H-dibenzo[a,d]cyclohepten-5-yl)methylamino]-4-oxo-4,6,7,8-tetrahydropyrrolo[1,2-a]pyrazine-6-carboxamide dihydrochloride], the IC50 in test [3] was found to be 43 nM. That is a double-digit nanomolar value.

For the compound `Cc1nc(N)ccc1CNC(=O)[C@@H]1CCc2cnc(NCCc3cccc4ccccc34)c(=O)n21` [Example 50, (6S)-N-[(6-Amino-2-methyl-3-pyridyl)methyl]-3-[2-(1-naphthyl)ethylamino]-4-oxo-4,6,7,8-tetrahydropyrrolo[1,2-a]pyrazine-6-carboxamide dihydrochloride], the IC50 in test [3] came to 29 nM.

Take `Cc1cc(CNC(=O)[C@@H]2CCc3cnc(NCCc4ccccn4)c(=O)n32)c(C)nc1N.Cl.Cl.Cl` [Example 68, (6S)-N-[(6-Amino-2,5-dimethyl-3-pyridyl)methyl]-3-[2-(2-pyridyl)ethylamino]-4-oxo-4,6,7,8-tetrahydropyrrolo[1,2-a]pyrazine-6-carboxamide trihydrochloride]: the “TT Ctt2” value in test [2] turned out to be 0.23 µM. The same compound came in with a concentration for half-maximal inhibition (IC50) in test [3] of 16 nM. Further, the “ACT Ctt2” value in test [5] was determined as 2.04 µM.

For the compound `CCNC(=O)COc1ccccc1CNC(=O)[C@@H]1CCc2cnc(NCCc3ccccc3)c(=O)n21` [Example 71, (6S)-N-[(2-Ethylcarbamoylmethoxy)benzyl]-4-oxo-3-(2-phenethylamino)-4,6,7,8-tetrahydropyrrolo [1,2-a]pyrazine-6-carboxamide], the IC50 in test [6] was more than 33000 nM; in test [7], more than 33000 nM; in test [3] it was 13 nM; in test [8], more than 33000 nM.

In turn, `CCNC(=O)COc1ccccc1CNC(=O)[C@@H]1CCc2cnc(NCC(c3ccccc3)c3ccccc3)c(=O)n21` [Example 103, (6S)-N-[(2-Ethylcarbamoylmethoxy)-benzyl]-4-oxo-3-(2,2-diphenylethylamino)-4,6,7,8-tetrahydropyrrolo[1,2-a]pyrazine-6-carboxamide hydrochloride] yielded an IC50 in test [3] of 14 nM.

The record behind these values is patent publication US6277851A, “Bicyclic amino-pyrazinone compounds” (priority 1999, dated 2001).
